Measured values from US20080274892A1, “Novel Haloalkylsulfonanilide Derivative, Herbicide, and Method of Use Thereof” (priority 2005, published 2008).

Columns and labels:
bulrush [1] = assay: Test Example 2: herbicidal efficacy on rice paddy weeds post-emergence; assay type: in vivo, Scirpus juncoides; conditions: 21 days after treatment
Description: (§1) The standard of judgment for herbicidal efficacy (degree of growth inhibition) and phytotoxicity 4 . . . 90%-100% of herbicidal efficacy or phytotoxicity 3 . . . 70%-89% of herbicidal efficacy or phytotoxicity 2 . . . 40%-69% of herbicidal efficacy or phytotoxicity 1 . . . 1%-39% of herbicidal efficacy or phytotoxicity 0 . . . 0% of herbicidal efficacy or phytotoxicity
(§2) A 75 cm^2 plastic pot was filled with soil (clay loam) and planted seeds of barnyard glass and bulrush which is a rice paddy weed. After covering the top with 75 cm^3 soil mixed with seeds of false pimpernel, the pot was filled with water so that the soil submerged under 5 cm depth of water and kept in a hot house. […] The pot was kept in a hot house for 21 days after the treatment and the herbicidal efficacy was investigated and evaluated according to the standard in Test Example 1 by comparing with the untreated control. “-” in the table represents test not done.

barnyard glass = assay: as above; assay type: in vivo, Echinochloa crus-galli; conditions: 21 days after treatment
Description: as §1, §2

false pimpernel [2] = assay: as above; assay type: in vivo, Lindernia pyxidaria; conditions: 21 days after treatment
Description: as §1, §2

bulrush [3] = assay: Test Example 1: herbicidal efficacy on rice paddy weeds pre-emergence; assay type: in vivo, Scirpus juncoides; conditions: 21 days
Experimental: (§3) A 75 cm^2 plastic pot was filled with soil (clay loam) and planted seeds of bulrush which is a rice paddy weed. After covering the top with 75 cm^3 soil mixed with seeds of false pimpernel, the pot was filled with water so that the soil submerged under 5 cm depth of water. The predetermined effective dosage ([…]) of a formulation containing the compound of the present invention prepared according to Formulation Example 1-4 as an active ingredient was diluted in water and added to the pot water surface dropwise. The pot was kept in a hot house for 21 days and the herbicidal efficacy was investigated. The herbicidal efficacy was evaluated according to the following standard by comparing with untreated control. “-” in the table represents test not done.
as §1

[4] = system: paddy rice plant (cultivar: Nihonbare); assay: Test Example 3: phytotoxicity test for transplanted paddy rice plant; assay type: in vivo; conditions: 21 days after treatment; for Phytotoxicity to paddy rice: transplanted rice; for Phytotoxicity to paddy rice (grade): dosage 1000 g/ha active ingredient, vs untreated control
Experimental: as §1
A 75 cm^2 plastic pot was filled with soil (clay loam), and water was added so that the soil was submerged under 5 cm depth of water. Two paddy rice plant (cultivar: Nihonbare) at two leaves stage were transplanted at the depth of 1 cm and kept in a hot house. […] The pot was kept in a hot house for 21 days after the treatment and the phytotoxicity was investigated and evaluated according to the standard in Test Example 1 by comparing with the untreated control. “-” in the table represents test not done.

false pimpernel [5] = assay: Test Example 1: herbicidal efficacy on rice paddy weeds pre-emergence; assay type: in vivo, Lindernia pyxidaria; conditions: 21 days
Experimental: as §3, §1

[6] = dosage 300 g/ha, post-emergence, one leaf stage
[7] = dosage 1000 g/ha, post-emergence, one leaf stage
[8] = dosage 1000 g/ha, treated 5 days after transplantation
[9] = dosage 1000 g/ha active ingredient, post-emergence treatment at one leaf stage, vs untreated control
[10] = dosage 1000 g/ha active ingredient, vs untreated control
[11] = treated 5 days after transplantation

SMILES | Bulrush post (herbicidal efficacy grade) (bulrush [1]; [6]) | Burnyard grass post (herbicidal efficacy grade) (barnyard glass; [6]) | False pimpernel post (herbicidal efficacy grade) (false pimpernel [2]; [6]) | Bulrush pre (herbicidal efficacy grade) (bulrush [3]; dosage 300 g/ha) | Phytotoxicity to paddy rice ([4]; dosage 300 g/ha) | False pimpernel pre (herbicidal efficacy grade) (false pimpernel [5]; dosage 300 g/ha) | other results
CC(C)(C)OC(=O)NCC1CN(Cc2ccccc2NS(=O)(=O)C(F)(F)F)C(=O)O1 (racemic) [1-106] | 4 (90%-100% of herbicidal efficacy or phytotoxicity) | 0 (0% of herbicidal efficacy or phytotoxicity) | 2 (40%-69% of herbicidal efficacy or phytotoxicity) | 4 (90%-100% of herbicidal efficacy or phytotoxicity) | 0 (0% of herbicidal efficacy or phytotoxicity) | 2 (40%-69% of herbicidal efficacy or phytotoxicity) | 
O=C1OC(COc2ccccc2)CN1Cc1ccccc1NS(=O)(=O)C(F)(F)F (racemic) [Compound 1-51] | 4 (90%-100% of herbicidal efficacy or phytotoxicity) | 0 (0% of herbicidal efficacy or phytotoxicity) | 3 (70%-89% of herbicidal efficacy or phytotoxicity) | 3 (70%-89% of herbicidal efficacy or phytotoxicity) | 0 (0% of herbicidal efficacy or phytotoxicity) | 4 (90%-100% of herbicidal efficacy or phytotoxicity) | 
CC(C)COC(=O)N(c1ccccc1CN1CC(COc2ccccc2)OC1=O)S(=O)(=O)C(F)(F)F (racemic) [Compound 1-52] | 4 (90%-100% of herbicidal efficacy or phytotoxicity) | 3 (70%-89% of herbicidal efficacy or phytotoxicity) | 4 (90%-100% of herbicidal efficacy or phytotoxicity) | 4 (90%-100% of herbicidal efficacy or phytotoxicity) | 0 (0% of herbicidal efficacy or phytotoxicity) | 4 (90%-100% of herbicidal efficacy or phytotoxicity) | 
CC(C)CC1(C)CN(Cc2ccccc2NS(=O)(=O)C(F)(F)F)C(=O)O1 (racemic) [Compound 1-103] | 4 (90%-100% of herbicidal efficacy or phytotoxicity) | 4 (90%-100% of herbicidal efficacy or phytotoxicity) | 4 (90%-100% of herbicidal efficacy or phytotoxicity) | 4 (90%-100% of herbicidal efficacy or phytotoxicity) | 2 (40%-69% of herbicidal efficacy or phytotoxicity) | 4 (90%-100% of herbicidal efficacy or phytotoxicity) | 
CC(C)COC(=O)N(c1ccccc1CN1CC(C)(CC(C)C)OC1=O)S(=O)(=O)C(F)(F)F (racemic) [Compound 1-104] |  |  |  |  |  |  | Bulrush post (herbicidal efficacy grade) (bulrush [1]; [7]): 4 (90%-100% of herbicidal efficacy or phytotoxicity); Burnyard grass post (herbicidal efficacy grade) (barnyard glass; [7]): 4 (90%-100% of herbicidal efficacy or phytotoxicity); False pimpernel post (herbicidal efficacy grade) (false pimpernel [2]; [7]): 4 (90%-100% of herbicidal efficacy or phytotoxicity); Bulrush pre (herbicidal efficacy grade) (bulrush [3]; dosage 1000 g/ha): 4 (90%-100% of herbicidal efficacy or phytotoxicity); Phytotoxicity to paddy rice [4, 8]: 2 (40%-69% of herbicidal efficacy or phytotoxicity); False pimpernel pre (herbicidal efficacy grade) (false pimpernel [5]; dosage 1000 g/ha): 4 (90%-100% of herbicidal efficacy or phytotoxicity)
CC(C)COC(=O)N(c1ccccc1CN1CC(CNC(=O)OC(C)(C)C)OC1=O)S(=O)(=O)C(F)(F)F (racemic) [Compound 1-107] | 4 (90%-100% of herbicidal efficacy or phytotoxicity) | 3 (70%-89% of herbicidal efficacy or phytotoxicity) | 1 (1%-39% of herbicidal efficacy or phytotoxicity) | 4 (90%-100% of herbicidal efficacy or phytotoxicity) | 0 (0% of herbicidal efficacy or phytotoxicity) | 4 (90%-100% of herbicidal efficacy or phytotoxicity) | 
CCCCC1(C)CN(Cc2ccccc2NS(=O)(=O)C(F)(F)F)C(=O)O1 (racemic) [Compound 1-121] | 4 (90%-100% of herbicidal efficacy or phytotoxicity) | 1 (1%-39% of herbicidal efficacy or phytotoxicity) | 4 (90%-100% of herbicidal efficacy or phytotoxicity) | 4 (90%-100% of herbicidal efficacy or phytotoxicity) | 1 (1%-39% of herbicidal efficacy or phytotoxicity) | 4 (90%-100% of herbicidal efficacy or phytotoxicity) | 
CCCCC1(C)CN(Cc2ccccc2N(C(=O)OCC(C)C)S(=O)(=O)C(F)(F)F)C(=O)O1 (racemic) [Compound 1-123] |  |  |  |  |  |  | Bulrush post (herbicidal efficacy grade) (bulrush [1]; [7]): 4 (90%-100% of herbicidal efficacy or phytotoxicity); Burnyard grass post (herbicidal efficacy grade) (barnyard glass; [7]): 4 (90%-100% of herbicidal efficacy or phytotoxicity); False pimpernel post (herbicidal efficacy grade) (false pimpernel [2]; [7]): 4 (90%-100% of herbicidal efficacy or phytotoxicity); Bulrush pre (herbicidal efficacy grade) (bulrush [3]; dosage 1000 g/ha): 4 (90%-100% of herbicidal efficacy or phytotoxicity); Phytotoxicity to paddy rice [4, 8]: 1 (1%-39% of herbicidal efficacy or phytotoxicity); False pimpernel pre (herbicidal efficacy grade) (false pimpernel [5]; dosage 1000 g/ha): 4 (90%-100% of herbicidal efficacy or phytotoxicity)
CC1(C)OC(=O)N(Cc2cc(Cl)ccc2NS(=O)(=O)C(F)(F)F)C1=O [1-211] |  |  |  |  |  |  | Bulrush post (herbicidal efficacy grade) (bulrush [1]; [7]): 4 (90%-100% of herbicidal efficacy or phytotoxicity); Burnyard grass post (herbicidal efficacy grade) (barnyard glass; [7]): 4 (90%-100% of herbicidal efficacy or phytotoxicity); Bulrush pre (herbicidal efficacy grade) (bulrush [3]; dosage 1000 g/ha): 4 (90%-100% of herbicidal efficacy or phytotoxicity); Phytotoxicity to paddy rice [4, 8]: 4 (90%-100% of herbicidal efficacy or phytotoxicity)
COCOc1cccc(CN2CC(C)(C)OC2=O)c1NS(=O)(=O)C(F)(F)F [1-212] |  |  |  |  |  |  | Bulrush post (herbicidal efficacy grade) (bulrush [1]; [9]): 2 (40%-69% of herbicidal efficacy or phytotoxicity); Burnyard grass post (herbicidal efficacy grade) (barnyard glass; [9]): 3 (70%-89% of herbicidal efficacy or phytotoxicity); False pimpernel post (herbicidal efficacy grade) (false pimpernel [2]; [9]): 2 (40%-69% of herbicidal efficacy or phytotoxicity); Bulrush pre (herbicidal efficacy grade) (bulrush [3]; [10]): 4 (90%-100% of herbicidal efficacy or phytotoxicity); Phytotoxicity to paddy rice (grade) [4, 11]: 3 (70%-89% of herbicidal efficacy or phytotoxicity); False pimpernel pre (herbicidal efficacy grade) (false pimpernel [5]; [10]): 1 (1%-39% of herbicidal efficacy or phytotoxicity)
CC1(C)CN(Cc2cccc(O)c2NS(=O)(=O)C(F)(F)F)C(=O)O1 [1-214] |  |  |  |  |  |  | Bulrush post (herbicidal efficacy grade) (bulrush [1]; [9]): 1 (1%-39% of herbicidal efficacy or phytotoxicity); Burnyard grass post (herbicidal efficacy grade) (barnyard glass; [9]): 0 (0% of herbicidal efficacy or phytotoxicity); Bulrush pre (herbicidal efficacy grade) (bulrush [3]; [10]): 1 (1%-39% of herbicidal efficacy or phytotoxicity); Phytotoxicity to paddy rice (grade) [4, 11]: 0 (0% of herbicidal efficacy or phytotoxicity)
CC1(C)CN(Cc2cc3c(cc2NS(=O)(=O)C(F)(F)F)OCO3)C(=O)O1 [1-215] |  |  |  |  |  |  | Bulrush post (herbicidal efficacy grade) (bulrush [1]; [9]): 2 (40%-69% of herbicidal efficacy or phytotoxicity); Burnyard grass post (herbicidal efficacy grade) (barnyard glass; [9]): 1 (1%-39% of herbicidal efficacy or phytotoxicity); False pimpernel post (herbicidal efficacy grade) (false pimpernel [2]; [9]): 3 (70%-89% of herbicidal efficacy or phytotoxicity); Bulrush pre (herbicidal efficacy grade) (bulrush [3]; [10]): 2 (40%-69% of herbicidal efficacy or phytotoxicity); Phytotoxicity to paddy rice (grade) [4, 11]: 0 (0% of herbicidal efficacy or phytotoxicity); False pimpernel pre (herbicidal efficacy grade) (false pimpernel [5]; [10]): 4 (90%-100% of herbicidal efficacy or phytotoxicity)
CCc1cn(Cc2ccccc2NS(=O)(=O)C(F)(F)F)c(=O)o1 [Compound 1-209] | 3 (70%-89% of herbicidal efficacy or phytotoxicity) |  | 2 (40%-69% of herbicidal efficacy or phytotoxicity) | 3 (70%-89% of herbicidal efficacy or phytotoxicity) | 1 (1%-39% of herbicidal efficacy or phytotoxicity) | 4 (90%-100% of herbicidal efficacy or phytotoxicity) | 
CCc1cn(Cc2ccccc2N(C(=O)OCC(C)C)S(=O)(=O)C(F)(F)F)c(=O)o1 [Compound 1-210] | 4 (90%-100% of herbicidal efficacy or phytotoxicity) |  | 0 (0% of herbicidal efficacy or phytotoxicity) | 3 (70%-89% of herbicidal efficacy or phytotoxicity) | 0 (0% of herbicidal efficacy or phytotoxicity) | 4 (90%-100% of herbicidal efficacy or phytotoxicity) | 
